# Experimental data as given in patent publication US20110190235A1, “BORON-CONTAINING SMALL MOLECULES AS ANTIPROTOZOAL AGENTS” (Anacor Pharmaceuticals, Inc., priority 2009, published 2011).
# pIC50: −log10 of the molar value. Read-outs that look alike come from different tables or passages of the source.
# Legend:
# [1] = L929 cytotoxicity evaluation (resazurin); format: cell-based; conditions: mouse, L929 mouse fibroblast cells; 72 hrs incubation; read-out: Cytotox L-929 IC50
# In short: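 Mouse L929 fibroblasts (1×10^4/mL seeding, attached overnight) were treated 72 h at 37 °C, 5% CO2 with serially diluted compounds in DMSO in D-MEM/10% FBS. Viability read by resazurin fluorescence after 3–4 h (ex 544/em 590 nm); IC50 from sigmoidal fits of single data points.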
# [2] = tested on: bloodstream-form trypanosome T. brucei brucei 427 strain; assay: Trypanosoma brucei brucei high-throughput in vitro drug sensitivity assay (resazurin); format: cell-based; conditions: for IC50 / pIC50: Trypanosoma brucei; for Selectivity Index (L929 IC50 / T. b. brucei IC50): T. b. brucei vs L929; for pIC50: read-out: T. b. brucei IC50
# [3] = Kinetic solubility by nephelometric (light scattering) method; format: physicochemical; conditions: phosphate buffered saline, aqueous buffer, kinetic from dmso stock, PBS pH 7.4
# Method: The kinetic solubilities of compounds were estimated using a nephelometric (light scattering) method. Briefly, compounds were serially diluted in DMSO, followed by dilution in PBS pH 7.4. After incubation, the amount of light scattered by a compound at each concentration was measured. […] At concentrations above the solubility limit, the compound precipitates and the precipitant in the well scatters the light, generating a signal. Higher levels of precipitant in a well scatter more light and produce a stronger signal.
# A stock solution of compound (25 mM in DMSO) was prepared, and was serially diluted in DMSO in two-fold increments in a row of a 96 well plate to a lowest concentration of 24 μM. A duplicate plate was prepared by transfer of half of the volume of each well to a new plate. Each well containing DMSO solution of the test compound was then diluted further (1:100) with phosphate buffered saline (pH 7.4) to provide aqueous solutions of compound at the following final concentrations: 250, 125, 62.5, 31.3, 15.6, 7.8, 3.9, 2.0, 1.0, 0.5 and 0.2 μM. All liquid handling stages were performed on a Beckman Coulter Biomek NX Laboratory Automation Workstation. Each compound was diluted and tested in duplicate, providing four separate wells at each test concentration.
# The test solutions of compound were incubated at room temperature for 90 minutes and then analyzed using a Thermoskan Ascent nephelometric plate reader. The nephelometer protocol included two steps: first, the plate was shaken for 60 seconds at 1200 rpm, then each well of the plate was read in succession with an 800 ms settling delay between measurements. The total measurement time for a single plate was less than 4 minutes.
# The four values (in nephelometric units) obtained for each compound at each concentration were averaged and plotted on a log scale versus concentration.
# [4] = 72 hrs incubation, read-out: T.b. brucei IC50
Structure (SMILES),IC50 at 72 h [1] [µg/mL],"IC50 [2, 4] [µg/mL]",solubility at 90 min [3] [µM],Selectivity Index (L929 IC50 / T. b. brucei IC50) [2],pIC50 ([2]; 72 hrs incubation),"IC50 ([2]; 72 h, read-out: T. b. brucei IC50 (nM)) [nM]","IC50 ([2]; 72 h, read-out: T.b. brucei IC50 (ug/mL)) [µg/mL]"
"CC1(C)OB(O)c2cc(NC(=O)c3ccc(Cl)cc3Cl)ccc21 [compound 65, 2,4-Dichloro-N-(1-hydroxy-3,3-dimethyl-1,3-dihydro-benzo[c][1,2]oxaborol-6-yl)-benzamide]",> 10,0.278,50,,,,
"CC1OB(O)c2cc(NC(=O)c3ccccc3Br)ccc21 (centres unmarked) [compound 14, 2-Bromo-N-(1-hydroxy-3-methyl-1,3-dihydro-benzo[c][1,2]oxaborol-6-yl)-benzamide]",1.67,0.043,100,39,6.91,,
"Cc1ccc(F)c(C(=O)Nc2ccc3c(c2)B(O)OC3(C)C)c1Cl [compound 107, 2-Chloro-6-fluoro-N-(1-hydroxy-3,3-dimethyl-1,3-dihydro-benzo[c][1,2]oxaborol-6-yl)-3-methyl-benzamide]",> 10,0.566,4.3,,,,
"CC1(C)OB(O)c2cc(NC(=O)c3ccccc3C(F)(F)F)ccc21 [compound 34, N-(1-Hydroxy-3,3-dimethyl-1,3-dihydro-benzo[c][1,2]oxaborol-6-yl)-2-trifluoromethyl-benzamide]",> 10,0.106,50,>94,6.52,,
"CC1(C)OB(O)c2cc(NC(=O)c3ccc(F)cc3)ccc21 [compound 44, 4-Fluoro-N-(1-hydroxy-3,3-dimethyl-1,3-dihydro-benzo[c][1,2]oxaborol-6-yl)-benzamide]",> 10,> 5,100,,< 4.78,,
"CC1(C)OB(O)c2cc(NC(=O)c3ccc(Br)cc3Cl)ccc21 [compound 76, 4-Bromo-2-chloro-N-(1-hydroxy-3,3-dimethyl-1,3-dihydro-benzo[c][1,2]oxaborol-6-yl)-benzamide]",> 10,0.185,25,,,,
"CC1OB(O)c2cc(NC(=O)c3ccc(F)cc3F)ccc21 (centres unmarked) [compound 12, 2,4-Difluoro-N-(1-hydroxy-3-methyl-1,3-dihydro-benzo[c][1,2]oxaborol-6-yl)-benzamide]",> 10,0.081,100,>123,6.57,,
O=C(Nc1ccc2c(c1)B(O)OC21CCC1)c1ccc(F)cc1Cl [compound 135],> 10,0.172,25,>58,6.30,,
"Cc1ccc(C(=O)Nc2ccc3c(c2)B(O)OC3C)cc1 (centres unmarked) [compound 7, N-(1-Hydroxy-3-methyl-1,3-dihydro-benzo[c][1,2]oxaborol-6-yl)-4-methyl-benzamide]",5.61,0.041,100,137,6.84,,
"CC1(C)OB(O)c2cc(NC(=O)c3ccc4ccccc4c3)ccc21 [compound 112, Naphthalene-2-carboxylic acid (1-hydroxy-3,3-dimethyl-1,3-dihydrobenzo[c][1,2]oxaborol-6-yl)-amide]",> 10,0.278,50,,,,
O=C(Nc1ccc2c(c1)B(O)OC21CCC1)c1ccc(F)cc1C(F)(F)F [compound 134],> 10,,100,>30,,892,0.338
"CC1(C)OB(O)c2cc(NC(=O)c3ccccn3)ccc21 [compound 114, Pyridine-2-carboxylic acid (1-hydroxy-3,3-dimethyl-1,3-dihydro-benzo[c][1,2]oxaborol-6-yl)-amide]",> 10,> 5,100,,,,
"O=C(Nc1ccc2c(c1)B(O)OC2C1CCCC1)c1ccc(F)cc1C(F)(F)F (centres unmarked) [compound 19, N-(3-Cyclopentyl-1-hydroxy-1,3-dihydro-benzo[c][1,2]oxaborol-6-yl)-4-fluoro-2-trifluoromethyl-benzamide]",> 10,3.18,100,>3,5.11,,
"CC1(C)OB(O)c2cc(NC(=O)c3ccccc3Cl)ccc21 [compound 38, 2-Chloro-N-(1-hydroxy-3,3-dimethyl-1,3-dihydro-benzo[c][1,2]oxaborol-6-yl)-benzamide]",> 10,0.168,13,>60,6.27,,
"O=C(Nc1ccc2c(c1)B(O)OC2C1CCCC1)c1ccccc1C(F)(F)F (centres unmarked) [compound 17, N-(3-Cyclopentyl-1-hydroxy-1,3-dihydro-benzo[c][1,2]oxaborol-6-yl)-2-trifluoromethyl-benzamide]",> 10,0.655,25,>15,5.77,,
"CC1(C)OB(O)c2cc(NC(=O)c3ccccc3)ccc21 [compound 26, N-(1-Hydroxy-3,3-dimethyl-1,3-dihydro-benzo[c][1,2]oxaborol-6-yl)-benzamide]",> 10,> 5,200,,,,
"CC1(C)OB(O)c2cc(NC(=O)c3ccccc3Br)ccc21 [compound 39, 2-Bromo-N-(1-hydroxy-3,3-dimethyl-1,3-dihydro-benzo[c][1,2]oxaborol-6-yl)-benzamide]",> 10,0.227,50,>44,6.20,,
"CC(C)(C)c1ccc(C(=O)Nc2ccc3c(c2)B(O)OC3(C)C)cc1 [compound 33, 4-tert-Butyl-N-(1-hydroxy-3,3-dimethyl-1,3-dihydro-benzo[c][1,2]oxaborol-6-yl)-benzamide]",> 10,0.229,6,,,,
"CC(C)CC1OB(O)c2cc(NC(=O)c3ccc(F)cc3C(F)(F)F)ccc21 (centres unmarked) [compound 23, 4-Fluoro-N-(1-hydroxy-3-isobutyl-1,3-dihydro-benzo[c][1,2]oxaborol-6-yl)-2-trifluoromethyl-benzamide]",> 10,2.41,25,>4,5.21,,
"CC1OB(O)c2cc(NC(=O)c3ccc(Cl)cc3)ccc21 (centres unmarked) [compound 9, 4-Chloro-N-(1-hydroxy-3-methyl-1,3-dihydro-benzo[c][1,2]oxaborol-6-yl)-benzamide]",> 10,0.048,25,>208,6.80,,
"CC1OB(O)c2cc(NC(=O)c3ccccc3F)ccc21 (centres unmarked) [compound 8, 2-Fluoro-N-(1-hydroxy-3-methyl-1,3-dihydro-benzo[c][1,2]oxaborol-6-yl)-benzamide]",5.86,0.07,50,84,6.61,,
"CC1OB(O)c2cc(NC(=O)c3ccc(F)cc3Cl)ccc21 (centres unmarked) [compound 13, 2-Chloro-4-fluoro-N-(1-hydroxy-3-methyl-1,3-dihydro-benzo[c][1,2]oxaborol-6-yl)-benzamide]",2,0.043,> 200,47,6.87,,
